From patent US20090097026A1, “COLOR MEASUREMENTS OF RECONSTITUTED TIGECYCLINE AND DEGRADANT THEREOF” (Wyeth, priority 2007, published 2009)

What was measured:
[1] = Stability / oxidative degradation observations; assay type: physicochemical; conditions: result in words
Description: Compound I was isolated from forced degradation samples of tigecycline and is unstable. This blue compound was characterized by LC-MS/MS and NMR as an iminoquinone derivative of tigecycline, an oxidative degradant with a positive ionic formula of C29H38N5O10 formed when tigecycline is exposed to air for twenty-four hours. A linear correlation (R>0.99) between the concentration of Compound I and the calculated color value was discovered. In substantially pure form, Compound I is useful as a test standard for determining the concentration of Compound I in a sample of Tigecycline. Compound I may be obtained in substantially pure form from the compound Tygecycline according to the following method: Tygecycline is degraded at room temperature by dissolving it in water open to air and stirring for a few hours until the solution changes color from yellow/orange to dark green. […]
Compound I was studied by NMR spectroscopy as well. […] A highly intense singlet peak at δH 3.59 was assigned to methyl protons of the C-7 dimethyl amino group, and their associated carbons were detected at δC 47.1 in the HSQC spectrum. […]

[2] = Color value of reconstituted tigecycline and tigecycline API spiked with Compound I; assay type: physicochemical; conditions: spiked into reconstituted tigecycline and tigecycline API; visual observation
Description: The spiking concentrations required to produce a clear color change in tigecycline (tigecycline for injection 50 mg/vial (lactose formulation)) was characterized using both a Hunterlab UltraScan XE color spectrophotometer and a quantitative HPLC method. The threshold for visual green color resulting from spiking with Compound I colored degradant was determined for each category of tigecycline samples. An excellent linear correlation (R>0.99) between the concentration of Compound I and the calculated color value is observed. The spiking of tigecycline with ca. 0.045 concentration Compound I results in observation of a slightly green color in the reconstituted tigecycline and tigecycline API. This green color is more pronounced at the higher Compound I concentration. Tables 1, 2, 3 and 4 summarize the calculated color values and HPLC results for tigecycline Registration stability batches (CR0040-50-01, CR0040-50-02, CR0040-50-03), validation stability batches (B41133, B41404, B41710) and API used in the validation stability batches (3000002665, 2000140691, 2000140693). As per the color methods employed the calculated color value is calculated from the measured CIEL*a*b* values using the equation below:
Calculated Color Value=2.19×L*+2.59×a*−0.48×b*
The samples were tested immediately after reconstitution according to the label directions (5.3 ml of 0.9% saline). […]

stability [1]	concentration of Compound I that results in a slightly green color [2]	Compound
susceptible to oxidative degradation		CN(C)c1cc(NC(=O)CNC(C)(C)C)c(O)c2c1C[C@H]1C[C@H]3[C@H](N(C)C)C(O)=C(C(N)=O)C(=O)[C@@]3(O)C(O)=C1C2=O [tigecycline]
	ca. 0.045	CN(C)c1c(O)c(C(N)=O)c(O)c(O)c1C[C@H]1C(C(=O)O)=C(O)C2=C(C(=[N+](C)C)C=C(NC(=O)CNC(C)(C)C)C2=O)[C@@H]1O [Compound I]
